Measured values from publication PMC12163657 (ACS Omega, 2025).

How the values were obtained:
CYP 3A4 = CYP 3A4 (Homo sapiens, UniProt P08684); experiment: CYP inhibition in human liver microsomes; type: in vitro ADME
[1] = Plasma protein binding, rapid equilibrium dialysis, mouse plasma; type: in vitro ADME; details: undiluted plasma
[2] = Single-dose pharmacokinetics, rat; type: in vivo; details: Sprague-Dawley, serum
[3] = Mouse hepatocyte stability; type: in vitro ADME; details: hepatocytes
[4] = Plasma protein binding, rapid equilibrium dialysis, dog plasma; type: in vitro ADME
ERα LBD = biological target: T1, ERα LBD (Homo sapiens, UniProt P03372); experiment: LanthaScreen TR-FRET ERα competitive binding assay
T1 sequence (P03372 311-547 limits assumed): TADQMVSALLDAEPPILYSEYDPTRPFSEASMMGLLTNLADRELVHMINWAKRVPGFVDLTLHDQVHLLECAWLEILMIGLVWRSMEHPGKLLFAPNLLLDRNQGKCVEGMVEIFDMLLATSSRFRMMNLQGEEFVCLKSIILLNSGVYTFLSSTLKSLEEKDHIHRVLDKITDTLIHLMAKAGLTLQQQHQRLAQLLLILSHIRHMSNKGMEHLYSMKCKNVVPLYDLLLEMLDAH

AR = biological target: T2, AR (Homo sapiens, UniProt P10275); experiment: Reporter assay of gene transcription activity, AR; type: cell-based; details: for IC50: reporter assay
T2 sequence (P10275 1-920): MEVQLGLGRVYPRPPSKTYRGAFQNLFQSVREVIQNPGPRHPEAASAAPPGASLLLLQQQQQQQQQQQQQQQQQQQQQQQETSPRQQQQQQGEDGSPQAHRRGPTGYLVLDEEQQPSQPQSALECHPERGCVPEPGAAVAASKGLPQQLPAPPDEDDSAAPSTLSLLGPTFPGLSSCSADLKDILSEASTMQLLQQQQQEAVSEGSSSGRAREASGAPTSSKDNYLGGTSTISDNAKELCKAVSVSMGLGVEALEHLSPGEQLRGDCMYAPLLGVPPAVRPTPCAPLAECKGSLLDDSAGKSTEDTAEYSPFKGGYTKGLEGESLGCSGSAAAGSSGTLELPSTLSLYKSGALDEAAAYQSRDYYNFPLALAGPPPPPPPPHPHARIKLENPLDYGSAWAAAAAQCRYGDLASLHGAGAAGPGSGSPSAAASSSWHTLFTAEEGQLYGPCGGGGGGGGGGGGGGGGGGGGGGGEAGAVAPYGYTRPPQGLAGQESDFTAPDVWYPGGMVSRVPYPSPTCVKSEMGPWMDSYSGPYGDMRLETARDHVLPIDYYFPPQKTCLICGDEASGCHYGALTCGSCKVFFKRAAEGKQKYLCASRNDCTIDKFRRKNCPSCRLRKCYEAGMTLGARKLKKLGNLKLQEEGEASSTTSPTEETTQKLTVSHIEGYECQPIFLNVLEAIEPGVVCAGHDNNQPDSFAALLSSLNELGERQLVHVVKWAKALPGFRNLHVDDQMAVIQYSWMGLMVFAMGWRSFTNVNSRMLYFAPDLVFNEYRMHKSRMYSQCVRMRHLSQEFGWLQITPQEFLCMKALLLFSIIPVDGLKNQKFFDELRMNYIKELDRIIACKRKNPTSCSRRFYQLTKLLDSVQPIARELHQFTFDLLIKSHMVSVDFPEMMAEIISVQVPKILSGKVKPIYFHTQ

[5] = Plasma protein binding, rapid equilibrium dialysis, human plasma; type: in vitro ADME
hERG ion channels = hERG ion channels (Homo sapiens, UniProt Q12809); experiment: hERG patch clamp assay; type: cell-based; details: at 30 μM
Sequence of hERG ion channels (Q12809 whole entry): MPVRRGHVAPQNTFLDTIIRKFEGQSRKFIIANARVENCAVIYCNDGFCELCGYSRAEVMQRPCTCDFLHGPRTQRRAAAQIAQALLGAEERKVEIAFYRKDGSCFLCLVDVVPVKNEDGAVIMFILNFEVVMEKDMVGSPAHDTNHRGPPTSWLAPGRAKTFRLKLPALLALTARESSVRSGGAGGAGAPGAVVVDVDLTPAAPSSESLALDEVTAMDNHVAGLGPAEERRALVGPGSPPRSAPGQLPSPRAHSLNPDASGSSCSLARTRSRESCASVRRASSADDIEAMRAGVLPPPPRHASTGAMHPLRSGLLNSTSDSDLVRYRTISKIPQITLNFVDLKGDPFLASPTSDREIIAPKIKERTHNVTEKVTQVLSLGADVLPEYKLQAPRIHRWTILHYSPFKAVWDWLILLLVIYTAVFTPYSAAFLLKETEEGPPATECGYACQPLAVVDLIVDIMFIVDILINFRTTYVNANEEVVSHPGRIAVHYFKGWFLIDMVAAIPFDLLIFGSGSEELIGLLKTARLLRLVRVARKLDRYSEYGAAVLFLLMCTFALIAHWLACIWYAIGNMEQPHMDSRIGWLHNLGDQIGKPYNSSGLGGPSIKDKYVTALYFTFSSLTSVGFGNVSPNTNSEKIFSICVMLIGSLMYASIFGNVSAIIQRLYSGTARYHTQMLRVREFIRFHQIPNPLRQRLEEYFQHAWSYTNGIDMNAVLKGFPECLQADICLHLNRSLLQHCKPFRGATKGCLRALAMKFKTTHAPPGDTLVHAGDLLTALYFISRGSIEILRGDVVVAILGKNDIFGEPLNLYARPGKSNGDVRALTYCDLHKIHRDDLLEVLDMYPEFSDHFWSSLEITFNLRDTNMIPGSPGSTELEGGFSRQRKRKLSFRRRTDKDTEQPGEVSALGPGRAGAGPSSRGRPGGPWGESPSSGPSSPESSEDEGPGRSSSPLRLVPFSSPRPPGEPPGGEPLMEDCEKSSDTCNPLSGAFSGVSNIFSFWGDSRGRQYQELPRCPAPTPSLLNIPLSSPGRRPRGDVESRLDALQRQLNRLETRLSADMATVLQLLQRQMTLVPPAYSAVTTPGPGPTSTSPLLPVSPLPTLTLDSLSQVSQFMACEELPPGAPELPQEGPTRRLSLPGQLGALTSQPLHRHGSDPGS

ERα = biological target: T3, ERα (Homo sapiens, UniProt P03372); experiment: Reporter assay of gene transcription activity, ERα; type: cell-based
T3 sequence (P03372 1-595): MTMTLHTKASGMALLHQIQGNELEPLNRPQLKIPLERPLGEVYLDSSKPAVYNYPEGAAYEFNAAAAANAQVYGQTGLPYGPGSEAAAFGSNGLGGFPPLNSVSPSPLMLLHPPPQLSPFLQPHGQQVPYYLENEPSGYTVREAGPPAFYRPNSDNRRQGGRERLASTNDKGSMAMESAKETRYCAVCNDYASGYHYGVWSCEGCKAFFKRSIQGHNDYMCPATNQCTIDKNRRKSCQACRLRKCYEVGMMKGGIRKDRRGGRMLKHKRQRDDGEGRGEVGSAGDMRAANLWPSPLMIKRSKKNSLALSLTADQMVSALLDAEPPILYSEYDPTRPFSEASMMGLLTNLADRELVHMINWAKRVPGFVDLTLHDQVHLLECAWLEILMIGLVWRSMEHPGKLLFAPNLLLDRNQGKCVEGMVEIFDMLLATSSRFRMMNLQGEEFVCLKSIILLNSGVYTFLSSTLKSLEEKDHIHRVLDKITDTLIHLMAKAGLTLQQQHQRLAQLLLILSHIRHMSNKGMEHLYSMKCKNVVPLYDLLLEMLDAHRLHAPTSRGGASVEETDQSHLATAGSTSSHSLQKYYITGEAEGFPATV

P-gp = P-gp (Homo sapiens, UniProt P08183); experiment: P-gp inhibition, membrane vesicles; type: in vitro ADME
Sequence of P-gp (P08183 whole entry): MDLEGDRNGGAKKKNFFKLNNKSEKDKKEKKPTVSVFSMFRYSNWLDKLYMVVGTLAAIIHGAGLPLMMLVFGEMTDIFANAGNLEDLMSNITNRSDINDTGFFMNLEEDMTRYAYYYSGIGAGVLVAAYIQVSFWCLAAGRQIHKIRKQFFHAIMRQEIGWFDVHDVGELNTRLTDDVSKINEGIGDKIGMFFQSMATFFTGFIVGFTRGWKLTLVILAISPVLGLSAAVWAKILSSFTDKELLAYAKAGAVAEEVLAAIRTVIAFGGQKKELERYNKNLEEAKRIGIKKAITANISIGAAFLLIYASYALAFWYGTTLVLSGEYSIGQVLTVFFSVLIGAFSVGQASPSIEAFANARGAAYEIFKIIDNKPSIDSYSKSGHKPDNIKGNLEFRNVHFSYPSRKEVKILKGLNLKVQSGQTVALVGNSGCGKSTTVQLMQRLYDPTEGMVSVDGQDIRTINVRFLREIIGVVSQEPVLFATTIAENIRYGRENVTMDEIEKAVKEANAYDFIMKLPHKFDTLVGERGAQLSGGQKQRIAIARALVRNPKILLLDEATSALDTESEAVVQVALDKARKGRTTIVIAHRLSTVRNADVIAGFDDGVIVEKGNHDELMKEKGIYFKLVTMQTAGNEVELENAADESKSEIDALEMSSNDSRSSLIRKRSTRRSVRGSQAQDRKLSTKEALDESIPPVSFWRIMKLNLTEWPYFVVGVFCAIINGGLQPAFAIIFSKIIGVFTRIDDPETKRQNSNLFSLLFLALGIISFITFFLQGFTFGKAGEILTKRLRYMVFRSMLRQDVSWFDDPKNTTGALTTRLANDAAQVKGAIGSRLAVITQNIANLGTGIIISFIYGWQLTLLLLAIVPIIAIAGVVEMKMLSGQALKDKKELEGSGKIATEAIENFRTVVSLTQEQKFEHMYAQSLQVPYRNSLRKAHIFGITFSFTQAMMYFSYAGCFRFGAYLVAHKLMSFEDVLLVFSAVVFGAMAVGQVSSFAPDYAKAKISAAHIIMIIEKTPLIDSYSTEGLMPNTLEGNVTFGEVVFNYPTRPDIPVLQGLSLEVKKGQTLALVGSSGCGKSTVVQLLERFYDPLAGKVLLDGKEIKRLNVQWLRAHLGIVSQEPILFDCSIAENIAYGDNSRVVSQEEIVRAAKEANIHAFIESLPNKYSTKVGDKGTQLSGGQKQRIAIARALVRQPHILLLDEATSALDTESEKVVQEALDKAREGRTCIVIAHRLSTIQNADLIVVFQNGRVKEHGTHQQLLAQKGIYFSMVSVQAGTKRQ

CAMA-1 ESR1 WT cells = experiment: CAMA-1 cell proliferation, ESR1 WT; type: cell-based; details: Homo sapiens, CAMA-1, read-out: CAMA-1 cell prolif. pIC50 (converted)

Sequence of CYP 3A4 (P08684 whole entry): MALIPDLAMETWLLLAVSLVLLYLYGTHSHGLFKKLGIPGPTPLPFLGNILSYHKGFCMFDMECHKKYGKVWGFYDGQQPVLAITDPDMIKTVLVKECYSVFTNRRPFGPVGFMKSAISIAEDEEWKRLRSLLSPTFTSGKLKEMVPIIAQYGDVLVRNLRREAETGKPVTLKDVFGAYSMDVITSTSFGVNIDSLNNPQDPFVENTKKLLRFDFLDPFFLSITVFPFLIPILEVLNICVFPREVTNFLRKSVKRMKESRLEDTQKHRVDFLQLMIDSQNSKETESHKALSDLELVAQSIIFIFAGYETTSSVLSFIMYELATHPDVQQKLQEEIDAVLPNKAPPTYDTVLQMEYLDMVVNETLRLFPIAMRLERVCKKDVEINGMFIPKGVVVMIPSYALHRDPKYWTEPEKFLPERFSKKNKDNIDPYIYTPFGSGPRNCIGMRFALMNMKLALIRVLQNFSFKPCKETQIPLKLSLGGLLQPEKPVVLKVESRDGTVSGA

- IC50 (CYP 3A4): > 10000 nM
- fraction unbound at 4 h, 1 µM [1]: 0.0006
- AUC ([2]; iv, 0.5 mg/kg): 454 ng·h/mL
- Cmax ([2]; iv, 0.5 mg/kg): 313 ng/mL
- Vd ([2]; iv, 0.5 mg/kg): 8 L/kg
- clearance ([2]; iv, 0.5 mg/kg): 13.3 mL/min/kg
- half-life ([2]; iv, 0.5 mg/kg): 7 h
- AUC ([2]; po, 5 mg/kg): 2590 ng·h/mL
- Cmax ([2]; po, 5 mg/kg): 138 ng/mL
- Tmax ([2]; po, 5 mg/kg): 1.5 h
- bioavailability ([2]; po, 5 mg/kg): 55%
- half-life ([2]; po, 5 mg/kg): 16 h
- half-life [3]: > 6 h
- hepatocyte CLint [3]: < 3.9 µL/min/1e6 cells
- Plasma free drug percentage [4]: 0.04%
- IC50 (ERα LBD): 2 nM
- IC50 (AR; AR pIC50, agonist mode, agonist mode): > 3160 nM
- IC50 (AR; AR pIC50, antag. mode, antag. mode (agonist-induced activity)): 1580 nM
- agonist cross-reactivity on AR (AR; in words): no agonist cross-reactivity
- plasma protein-bound ([5]; across all species, including humans): > 99%
- Plasma free drug percentage ([5]; hu plasma): 0.08%
- IC50 (ERα; ERα pIC50, agonist mode, agonist mode): > 3160 nM
- IC50 (ERα; ERα pIC50, antag. mode, antag. mode): 1 nM
- IC50 (P-gp): 4000 nM
SMILES: CCCN1CC(Oc2ccc([C@@H]3c4[nH]c5ccccc5c4C[C@@H](C)N3CC(C)(C)F)cc2)C1 [compound 21, (1R,3R)-2-(2-Fluoro-2-methylpropyl)-3-methyl-1-(4-((1-propylazetidin-3-yl)oxy)phenyl)-2,3,4,9-tetrahydro-1H-pyrido[3,4-b]indole]
- hERG inhibition (hERG ion channels): did not inhibit
- IC50 (CAMA-1 ESR1 WT cells): 1.58 nM
